Experimental data: patent US8399465B2, “Compounds with two fused bicyclic heteroaryl moieties as modulators of leukotriene A4 hydrolase” (Janssen Pharmaceutica NV, priority 2009, dated 2013)
Counter-ions that a name gives are not always drawn.

Columns and labels:
[1] = molecular target: T1, recombinant human LTA4 hydrolase (rhLTA4H) (Homo sapiens, UniProt P09960); assay: Recombinant human LTA4 hydrolase assay for LTA4 hydrolase inhibitor activity; format: biochemical; conditions: rhLTA4H, LTB4 by immunoassay; single determination or average of two or more; mark after value = form tested: ′ free base, ″ hydrochloride, ^ formate; read-out: IC50
T1 construct: made in house; host or cells: Spodoptera frugiperda (Sf-9) cells, baculovirus (pFastBac1)
T1 sequence (P09960 1-611): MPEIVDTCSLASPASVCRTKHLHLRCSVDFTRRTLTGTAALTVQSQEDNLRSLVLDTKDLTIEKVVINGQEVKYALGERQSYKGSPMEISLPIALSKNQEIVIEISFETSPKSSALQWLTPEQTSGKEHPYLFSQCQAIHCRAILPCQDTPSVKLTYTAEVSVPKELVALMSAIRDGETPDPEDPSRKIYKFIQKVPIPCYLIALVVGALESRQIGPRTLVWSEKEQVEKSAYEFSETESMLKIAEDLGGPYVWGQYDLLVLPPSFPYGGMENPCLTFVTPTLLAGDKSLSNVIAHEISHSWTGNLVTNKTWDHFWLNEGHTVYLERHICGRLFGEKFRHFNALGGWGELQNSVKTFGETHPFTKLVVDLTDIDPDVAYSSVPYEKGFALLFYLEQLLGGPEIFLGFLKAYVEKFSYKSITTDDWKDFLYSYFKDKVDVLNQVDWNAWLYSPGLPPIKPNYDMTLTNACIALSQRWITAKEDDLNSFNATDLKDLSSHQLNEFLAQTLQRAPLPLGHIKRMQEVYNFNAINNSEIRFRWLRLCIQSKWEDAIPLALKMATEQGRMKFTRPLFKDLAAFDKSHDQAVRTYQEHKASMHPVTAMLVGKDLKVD
Outline: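 Baculovirus/Sf-9-expressed human LTA4H (10 ng) was preincubated 10 min at rt with compound in assay buffer (10% DMSO in compound dilution), then reacted 30 min at rt with LTA4 free acid made from its methyl ester. LTB4 produced was measured by ELISA after dilution; IC50 from non-linear regression, single or averaged determinations.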

[2] = tested on: LTB4 production in murine blood (LTA4H); assay: LTB4 production by calcium ionophore-stimulated murine blood for LTA4H inhibitor activity; format: cell-based, CD-1 mice; conditions: Mus musculus; murine blood diluted 1 in 15, A23187 stimulated; single determination or average; mark after value = form tested: ′ free base, ″ hydrochloride, ^ formate; read-out: IC50
Outline: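 Heparinized blood from CD-1 mice was preincubated with compound for 15 min at 37° C, then stimulated with calcium ionophore A23187 (final 7 μg/mL) for 30 min. Centrifugation stopped the reaction, and LTB4 in the supernatant was measured by enzyme immunoassay. Values are single determinations or means of two or more.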

SMILES | IC50 [1] | IC50 [2]
NC(=O)N[C@@H]1C[C@H]2CC[C@@H](C1)N2Cc1coc2cc(Oc3nc4ncccc4s3)ccc12 [Example 207, meso-exo-{8-[6-(Thiazolo[4,5-b]pyridin-2-yloxy)-benzofuran-3-ylmethyl]-8-aza-bicyclo[3.2.1]oct-3-yl}-urea] | 1 nM | 160 nM
NC(=O)N1C[C@H]2CC[C@@H](C1)N2Cc1coc2cc(Oc3nc4ncccc4s3)ccc12 [Example 210, meso-8-[6-(Thiazolo[4,5-b]pyridin-2-yloxy)-benzofuran-3-ylmethyl]-3,8-diaza-bicyclo[3.2.1]octane-3-carboxylic acid amide] | 5 nM | 34 nM
c1cnc(OC2CCN(Cc3coc4cc(Oc5nc6ncccc6s5)ccc34)CC2)nc1 [Example 217, 2-{3-[4-(Pyrimidin-2-yloxy)-piperidin-1-ylmethyl]-benzofuran-6-yloxy}-thiazolo[4,5-b]pyridine] | 4 nM | 36 nM
CCN(CC)Cc1coc2cc(Oc3nc4ncccc4s3)ccc12 [Example 219, Diethyl-[6-(thiazolo[4,5-b]pyridin-2-yloxy)-benzofuran-3-ylmethyl]-amine] | 2 nM | 20 nM
c1cnc2nc(Oc3ccc4c(CN5CCC(c6ccncc6)CC5)coc4c3)sc2c1 [Example 220, 1-[6-(Thiazolo[4,5-b]pyridin-2-yloxy)-benzofuran-3-ylmethyl]-1,2,3,4,5,6-hexahydro-[4,4′]bipyridinyl] | 5 nM | 12 nM
NC(=O)N1CCC(N(Cc2coc3cc(Oc4nc5ncccc5s4)ccc23)C2CC2)CC1 [Example 242, 4-{Cyclopropyl-[6-(thiazolo[4,5-b]pyridin-2-yloxy)-benzofuran-3-ylmethyl]-amino}-piperidine-1-carboxylic acid amide] | 32 nM | 68 nM
CS(=O)(=O)N1C[C@@H]2CC[C@H]1CN2Cc1coc2cc(Oc3nc4ncccc4s3)ccc12 [Example 245, (1S,4S)-2-Methanesulfonyl-5-[6-(thiazolo[4,5-b]pyridin-2-yloxy)-benzofuran-3-ylmethyl]-2,5-diaza-bicyclo[2.2.2]octane] | 4 nM | 32 nM
CS(=O)(=O)N1CCC(N(Cc2coc3cc(Oc4nc5ncccc5s4)ccc23)C2CC2)CC1 [Example 246, Cyclopropyl-(1-methanesulfonyl-piperidin-4-yl)-[6-(thiazolo[4,5-b]pyridin-2-yloxy)-benzofuran-3-ylmethyl]-amine] | 14 nM | 90 nM
CC(=O)NC1CCN(Cc2coc3cc(Oc4nc5ncc(C)cc5s4)ccc23)CC1 [Example 251, N-{1-[6-(6-Methyl-thiazolo[4,5-b]pyridin-2-yloxy)-benzofuran-3-ylmethyl]-piperidin-4-yl}-acetamide formate] | 27 nM | 220 nM
CC(=O)NC1CCN(Cc2coc3cc(Oc4nc5nccc(C)c5s4)ccc23)CC1 [Example 252, N-{1-[6-(7-Methyl-thiazolo[4,5-b]pyridin-2-yloxy)-benzofuran-3-ylmethyl]-piperidin-4-yl}-acetamide formate] | 24 nM | 48 nM
CC(=O)NC1CCN(Cc2coc3cc(Oc4nc5nccnc5s4)ccc23)CC1 [Example 253, N-{1-[6-(Thiazolo[4,5-b]pyrazin-2-yloxy)-benzofuran-3-ylmethyl]-piperidin-4-yl}-acetamide formate] | 39 nM | 91 nM
CC(=O)NC1CCN(Cc2coc3cc(Oc4nc5ncc(F)cc5s4)ccc23)CC1 [Example 255, N-{1-[6-(6-Fluoro-thiazolo[4,5-b]pyridin-2-yloxy)-benzofuran-3-ylmethyl]-piperidin-4-yl}-acetamide formate] | 31 nM | 72 nM
c1cnc2nc(Oc3ccc4c(CN5CCC6CCCCC6C5)coc4c3)sc2c1 (stereo not shown) [Example 266, 2-[6-(Thiazolo[4,5-b]pyridin-2-yloxy)-benzofuran-3-ylmethyl]-decahydro-isoquinoline formate] | 2 nM | 100 nM
c1cnc2nc(Oc3ccc4c(CN5CCCC6CCCCC65)coc4c3)sc2c1 (stereo not shown) [Example 267, 1-[6-(Thiazolo[4,5-b]pyridin-2-yloxy)-benzofuran-3-ylmethyl]-decahydro-quinoline formate] | 9 nM | 44 nM
O=C1CCCCN1C1CCN(Cc2coc3cc(Oc4nc5ncccc5s4)ccc23)CC1 [Example 272, 1′-[6-(Thiazolo[4,5-b]pyridin-2-yloxy)-benzofuran-3-ylmethyl]-[1,4′]bipiperidinyl-2-one formate] | 5 nM | 15 nM
OC1(c2ccccc2)CCN(Cc2coc3cc(Oc4nc5ncccc5s4)ccc23)CC1 [Example 275, 4-Phenyl-1-[6-(thiazolo[4,5-b]pyridin-2-yloxy)-benzofuran-3-ylmethyl]-piperidin-4-ol] | 2 nM | 34 nM
c1ccc(CC2CCN(Cc3coc4cc(Oc5nc6ncccc6s5)ccc34)CC2)cc1 [Example 279, 2-[3-(4-Benzyl-piperidin-1-ylmethyl)-benzofuran-6-yloxy]-thiazolo[4,5-b]pyridine] | 44 nM | 130 nM
c1ccc(C2CCN(Cc3coc4cc(Oc5nc6ncccc6s5)ccc34)CC2)cc1 [Example 280, 2-[3-(4-Phenyl-piperidin-1-ylmethyl)-benzofuran-6-yloxy]-thiazolo[4,5-b]pyridine formate] | 10 nM | 130 nM

Now from value to compound:

IC50 [1] | IC50 [2] | SMILES
4 nM | 19 nM | c1cnc2nc(Oc3ccc4c(CN5CCCCC5)coc4c3)sc2c1 [Example 212, 2-(3-Piperidin-1-ylmethyl-benzofuran-6-yloxy)-thiazolo[4,5-b]pyridine]
2 nM | 366 nM | CCOC(=O)C1CCN(Cc2coc3cc(Oc4nc5ncccc5s4)ccc23)CC1 [Example 224, 1-[6-(Thiazolo[4,5-b]pyridin-2-yloxy)-benzofuran-3-ylmethyl]-piperidine-4-carboxylic acid ethyl ester]
6 nM | 80 nM | CS(=O)(=O)N1CCN(Cc2coc3cc(Oc4nc5ncccc5s4)ccc23)CC1 [Example 243, 2-[3-(4-Methanesulfonyl-piperazin-1-ylmethyl)-benzofuran-6-yloxy]-thiazolo[4,5-b]pyridine]
9 nM | 24 nM | CS(=O)(=O)N1CCCN(Cc2coc3cc(Oc4nc5ncccc5s4)ccc23)CC1 [Example 247, 2-[3-(4-Methanesulfonyl-[1,4]diazepan-1-ylmethyl)-benzofuran-6-yloxy]-thiazolo[4,5-b]pyridine]
12 nM | 54 nM | O=C(O)C1CCN(Cc2coc3cc(Oc4nc5ncccc5s4)ccc23)CC1 [Example 249, 1-[6-(Thiazolo[4,5-b]pyridin-2-yloxy)-benzofuran-3-ylmethyl]-piperidine-4-carboxylic acid]
5 nM | 74 nM | CC(=O)N1CCN(Cc2cc3cc(Oc4nc5ncccc5s4)ccc3o2)CC1 [Example 259, 1-{4-[5-(Thiazolo[4,5-b]pyridin-2-yloxy)-benzofuran-2-ylmethyl]-piperazin-1-yl}ethanone formate]
8 nM | 150 nM | OC1CCN(Cc2coc3cc(Oc4nc5ncccc5s4)ccc23)CC1 [Example 268, 1-[6-(Thiazolo[4,5-b]pyridin-2-yloxy)-benzofuran-3-ylmethyl]-piperidin-4-ol]
26 nM | 100 nM | FC1CCN(Cc2coc3cc(Oc4nc5ncccc5s4)ccc23)CC1 [Example 270, 2-[3-(4-Fluoro-piperidin-1-ylmethyl)-benzofuran-6-yloxy]-thiazolo[4,5-b]pyridine formate]
5 nM | 79 nM | COC1CCN(Cc2coc3cc(Oc4nc5ncccc5s4)ccc23)CC1 [Example 271, 2-[3-(4-Methoxy-piperidin-1-ylmethyl)-benzofuran-6-yloxy]-thiazolo[4,5-b]pyridine formate]
3 nM | 77 nM | O=C(C1CC1)N1CCN(Cc2coc3cc(Oc4nc5ncccc5s4)ccc23)CC1 [Example 276, Cyclopropyl-{4-[6-(thiazolo[4,5-b]pyridin-2-yloxy)-benzofuran-3-ylmethyl]-piperazin-1-yl}-methanone formate]
12 nM | 130 nM | c1cnc2nc(Oc3ccc4c(CN5CCN(C6CC6)CC5)coc4c3)sc2c1 [Example 277, 2-[3-(4-Cyclopropyl-piperazin-1-ylmethyl)-benzofuran-6-yloxy]-thiazolo[4,5-b]pyridine]
